Measurements as given in patent US6506766B1 (Abbott Laboratories, priority 1998, dated 2003).
Read-outs that look alike come from different tables or passages of the source.

Tests used:
[1] = molecular target: T1, human glucocorticoid receptor-α [GRX] isoform (Homo sapiens, UniProt P04150); test: Radioligand binding with human glucocorticoid receptor cytosol ([3H]-dexamethasone competition)
T1 construct: host or cells: insect SF21 cells (baculovirus)
T1 sequence (P04150 1-777): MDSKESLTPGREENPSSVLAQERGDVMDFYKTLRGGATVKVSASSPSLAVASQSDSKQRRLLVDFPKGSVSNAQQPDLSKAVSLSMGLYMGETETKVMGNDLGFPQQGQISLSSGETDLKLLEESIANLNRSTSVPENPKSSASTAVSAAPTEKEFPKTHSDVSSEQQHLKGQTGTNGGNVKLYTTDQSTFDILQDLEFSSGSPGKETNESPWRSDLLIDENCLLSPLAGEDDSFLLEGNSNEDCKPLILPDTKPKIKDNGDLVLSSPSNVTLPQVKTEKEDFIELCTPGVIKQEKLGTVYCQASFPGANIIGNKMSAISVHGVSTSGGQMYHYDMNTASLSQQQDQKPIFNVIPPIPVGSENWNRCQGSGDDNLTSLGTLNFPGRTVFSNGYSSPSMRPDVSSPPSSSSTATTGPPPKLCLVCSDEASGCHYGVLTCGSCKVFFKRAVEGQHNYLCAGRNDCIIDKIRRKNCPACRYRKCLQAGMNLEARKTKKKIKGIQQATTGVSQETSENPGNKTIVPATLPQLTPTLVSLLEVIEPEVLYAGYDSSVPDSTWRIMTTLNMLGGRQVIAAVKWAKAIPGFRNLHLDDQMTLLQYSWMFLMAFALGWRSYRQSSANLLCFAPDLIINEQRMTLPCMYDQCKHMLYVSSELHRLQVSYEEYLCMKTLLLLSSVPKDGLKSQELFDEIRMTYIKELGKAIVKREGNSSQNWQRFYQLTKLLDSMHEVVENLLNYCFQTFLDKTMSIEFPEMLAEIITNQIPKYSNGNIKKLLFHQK

[2] = molecular target: T2, human progesterone receptor-A [PRA] isoform (Homo sapiens, UniProt P06401); test: Radioligand binding with human progesterone receptor cytosol ([3H]-progesterone competition); settings: PRA cytosol expressed in insect SF21 cells, [3H]Prog ~0.8 nM, 4° C. overnight; Ki by Cheng-Prusoff, KL ~4.5 nM; read-out: Ki (nM) PR
T2 construct: host or cells: insect SF21 cells (baculovirus)
T2 sequence (P06401 1-769 isoform P06401-2): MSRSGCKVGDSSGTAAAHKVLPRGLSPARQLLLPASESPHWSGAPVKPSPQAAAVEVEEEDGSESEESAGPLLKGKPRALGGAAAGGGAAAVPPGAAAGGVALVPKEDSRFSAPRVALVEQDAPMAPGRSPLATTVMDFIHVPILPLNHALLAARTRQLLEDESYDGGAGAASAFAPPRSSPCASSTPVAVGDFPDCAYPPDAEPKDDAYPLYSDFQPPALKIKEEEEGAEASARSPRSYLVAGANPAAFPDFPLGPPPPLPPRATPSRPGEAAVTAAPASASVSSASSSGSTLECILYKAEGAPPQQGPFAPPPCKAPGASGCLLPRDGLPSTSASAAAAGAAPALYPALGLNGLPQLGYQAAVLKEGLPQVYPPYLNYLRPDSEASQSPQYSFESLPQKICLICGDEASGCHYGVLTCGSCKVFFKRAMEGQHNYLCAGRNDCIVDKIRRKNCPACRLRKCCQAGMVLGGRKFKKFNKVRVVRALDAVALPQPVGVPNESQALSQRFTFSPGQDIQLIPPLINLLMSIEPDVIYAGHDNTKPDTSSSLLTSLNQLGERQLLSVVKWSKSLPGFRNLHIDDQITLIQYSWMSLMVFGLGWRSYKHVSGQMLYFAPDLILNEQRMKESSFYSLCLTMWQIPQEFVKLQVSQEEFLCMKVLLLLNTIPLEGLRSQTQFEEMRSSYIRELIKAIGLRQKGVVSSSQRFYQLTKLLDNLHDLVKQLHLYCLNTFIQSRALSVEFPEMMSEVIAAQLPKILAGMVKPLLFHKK

[3] = GRX cytosol expressed in insect SF21 cells, [3H]-Dex ~0.9 nM, 4° C. overnight, Ki by Cheng-Prusoff, KL ~[…], read-out: Ki (nM) GR

Row | Compound | Ki [1, 3] [nM] | Ki [2] [nM] | Ki ([1]; Ki (nM) GR) [nM]
1 | C=CCC1Oc2c(C)ccc(OC)c2-c2ccc3c(c21)C(C)=CC(C)(C)N3 (centres unmarked) [Example 305, 10-Methoxy-7-methyl-5-(3-propenyl)-2,2,4-trimethyl-1H-2,5-dihydro-[1]benzopyrano[3,4-f]quinoline] | 2 | 6920 | 
2 | C=CCC1Oc2c(C(C)=O)ccc(OC)c2-c2ccc3c(c21)C(C)=CC(C)(C)N3 (centres unmarked) [Example 306, 10-Methoxy-7-acetyl-5-(3-propenyl)-2,2,4-trimethyl-1H-2,5-dihydro-[1]benzopyrano[3,4-f]quinoline] | 717 | 4460 | 
3 | C=CCC1Oc2c(C)cc(C)c(OC)c2-c2ccc3c(c21)C(C)=CC(C)(C)N3 (centres unmarked) [Example 308, 10-Methoxy-7-methyl-9-methyl-5-(3-propenyl)-2,2,4-trimethyl-1H-2,5-dihydro-[1]benzopyrano[3,4-f]quinoline] | 50.8 | 960 | 
4 | COc1cccc2c1-c1ccc3c(c1C(c1cccc(CCO)c1)O2)C(C)=CC(C)(C)N3 (centres unmarked) [Example 314, 2,5-Dihydro-10-methoxy-5-(3-(2-hydroxyethyl)phenyl)-2,2,4-trimethyl-1H-[1]benzopyrano[3,4-f]quinoline] | 1.7 | ≥ 10000 | 
5 | COc1cccc2c1-c1ccc3c(c1C(c1cccc(CCOS(C)(=O)=O)c1)O2)C(C)=CC(C)(C)N3 (centres unmarked) [Example 315, 2,5-Dihydro-10-methoxy-5-(3-(2-methanesulfonyloxyethyl)phenyl)-2,2,4-trimethyl-1H-[1]benzopyrano[3,4-f]quinoline] | 13 | ≥ 10000 | 
6 | COc1cccc2c1-c1ccc3c(c1C(c1cccc(CCSC)c1)O2)C(C)=CC(C)(C)N3 (centres unmarked) [Example 316, 2,5-Dihydro-10-methoxy-5-(3-(2-methythioethyl)phenyl)-2,2,4-trimethyl-1H-[1]benzopyrano[3,4-f]quinoline] | 11 | ≥ 10000 | 
7 | COc1cccc2c1-c1ccc3c(c1C(c1cccc(CCOC(=O)N(C)C)c1)O2)C(C)=CC(C)(C)N3 (centres unmarked) [Example 317, 2,5-Dihydro-10-methoxy-5-(3-(2-(N,N-dimethylaminocarbonyloxy)ethyl)phenyl)-2,2,4-trimethyl-1H-[1]benzopyrano[3,4-f]quinoline] | 6.5 | ≥ 10000 | 
8 | COc1cccc2c1-c1ccc3c(c1C(c1cccc(CCN(C)C)c1)O2)C(C)=CC(C)(C)N3 (centres unmarked) [Example 318, 2,5-Dihydro-10-methoxy-5-(3-(2-(N,N-dimethylamino)ethyl)phenyl)-2,2,4-trimethyl-1H-[1]benzopyrano[3,4-f]quinoline] | 553 | ≥ 10000 | 
9 | COc1cccc2c1-c1ccc3c(c1C(C1CC1)O2)C(C)=CC(C)(C)N3 (centres unmarked) [Example 319, 2,5-Dihydro-10-methoxy-5-cyclopropyl-2,2,4-trimethyl-1H-[1]benzopyrano[3,4-f]quinoline] | 16 | 492 | 
10 | COc1cccc2c1-c1ccc3c(c1C(/C=C/c1ccccc1)O2)C(C)=CC(C)(C)N3 (stereo not drawn) [Example 321, trans 2,5-Dihydro-10-methoxy-5-(2-phenylethenyl)-2,2,4-trimethyl-1H-[1]benzopyrano[3,4-f]quinoline] | 44 | 2880 | 
11 | COc1cccc2c1-c1ccc3c(c1C(C#Cc1ccccc1)O2)C(C)=CC(C)(C)N3 (centres unmarked) [Example 322, 2,5-Dihydro-10-methoxy-5-(2-phenylethynyl)-2,2,4-trimethyl-1H-[1]benzopyrano[3,4-f]quinoline] | 107 | 2300 | 
12 | COc1cccc2c1-c1ccc3c(c1C(/C=C\c1ccccc1)O2)C(C)=CC(C)(C)N3 (stereo not drawn) [Example 323, cis 2,5-Dihydro-10-methoxy-5-(2-phenylethenyl)-2,2,4-trimethyl-1H-[1]benzopyrano[3,4-f]quinoline] | 428 | ≥ 10000 | 
13 | COc1cccc2c1-c1ccc3c(c1C(C1=CCCCC1)O2)C(C)=CC(C)(C)N3 (stereo not drawn) [Example 325, trans 2,5-Dihydro-10-methoxy-5-(1-cyclohexenyl)-2,2,4-trimethyl-1H-[1]benzopyrano[3,4-f]quinoline] |  | ≥ 10000 | 24
